Experiment [1] has as its system ALPK1-TIFA-IL1β pathway in THP-1-derived macrophage cells. As to the kind of experiment: PMA-differentiated THP-1 cell based assay. The conditions noted are these: for IC50: Homo sapiens, PMA-differentiated THP-1 cells stimulated with ALPK1 agonist. The procedure:
We evaluated the ability of ALPK1 inhibitors to suppress IL1β, IL8 and TNF-α levels following ALPK1 activation in THP-1-derived macrophage cells. […] Inhibitory activity is measured as suppression of IL1β.
THP-1 cells were cultured in RPMI 1640 containing 10% heat inactivated FBS, penicillin (100 units/ml) and streptomycin (100 μg/ml), and maintained in a humidified incubator with 95% atmospheric air and 5% CO2. Prior to the experiment, THP-1 cells were seeded into 24-well flat-bottom plate at a cell density of 40,0000 cells/well. Phorbol myristate acetate (PMA; 50 ng/ml) was used to treat THP-1 cells for 48 h, and then THP-1-derived macrophages were obtained. […] Total RNA was extracted using the TRIzol method and reverse-transcribed. The mRNA expression levels IL1β, IL8 and TNF-α were detected by SYBR green gene expression assays. Expression levels of mRNA were normalized to GAPDH. Relative expression was calculated by comparing to vehicle control and the values were plotted as fold induction. All activity results were expressed as the mean of triplicate determinations. IC50 was determined from dose response curve using Prism Software, version 6.00 from GraphPad Software.

Experiment [2] deals with ALPK1-dependent gene expression in PBMC. Briefly: Inhibition of ALPK1 in PBMC cells. It is filed as in vivo, Sprague-Dawley (SD) rats. The settings on record: SD rats, 10 mpk oral, ALPK1 agonist ip 2 h later, blood 3 h after agonist; compared with vehicle group. The procedure:
We examined whether ALPK1 inhibitors can suppress ALPK1-dependent activation of a set of such genes in rats. […] PBMCs were collected and gene expression analyzed, as described in more detail below.
After 3 hours administration of the ALPK1 agonist, the blood was collected from heart, and PBMC were extracted from each group.

In another experiment the target is ALPK1 (Homo sapiens (Human), UniProt Q96QP1). As to the kind of experiment: ALPK1 in vitro kinase assay (HTRF, TIFA phosphorylation). In kind it is biochemical. The conditions noted are these: HTRF of HA-tagged TIFA; ALPK1 2 nM; ADP-Heptose as activator. In general terms: TR-FRET usually uses a lanthanide donor and a delayed reading to cut background.
Experiment [3] concerns ALPK1-TIFA pathway target gene mRNA in HASMC. Briefly: Primary Human Aorta Smooth Muscle Cell-based assay. The conditions noted are these: for IC50: Homo sapiens, HASMC stimulated with ALPK1 agonist. The protocol:
Primary Human Aorta smooth muscle Cells (HASMC) grow in Smooth muscle Cell Basal Media supplemented with Smooth Muscle Cell Growth Kit components (PriMed-iCell-002, iCell), provide an ideal cell system to propagate HASMC.
Briefly, primary HASMC were seeded at a density of 25000 cells per well to a collagen coated 24-well culture plate. […] Total RNA was extracted using the RNeasy mini kit method and reverse-transcribed. The mRNA expression levels of target genes were detected by SYBR green gene expression assays. Expression levels of mRNA were normalized to HPRT. Relative expression was calculated by comparing to vehicle control and the values were plotted as fold induction. All activity results were expressed as the mean of triplicate determinations. IC50 was determined from dose response curve using Prism Software, version 6.00 from GraphPad Software.

In experiment [4] the test system is carotid artery of Guinea Pig after PCL surgery. Briefly: Guinea pig, high fat diet, Partial Carotid Ligation model. The conditions noted are these: 6 weeks high fat diet. It is filed as in vivo.
The test system of experiment [5] is PCL induced atherosclerosis in ApoE knockout mice. As to the kind of experiment: ApoE mice, high fat diet, Partial Carotid Ligation atherosclerosis model. It is filed as in vivo, mouse. The settings on record: high fat diet, 1, 3, 9 mg/kg oral once daily for 2 weeks from PCL surgery.
Description: To determine the efficacy of ALPK1 inhibitor in atherosclerosis, we treat the ApoE mice with High Fat Diet (Research Diet, D12109C), and perform Partial Carotid Ligation (PCL) surgery on left Carotid artery as described previously (Zhang, Chenghu et al. “Coupling of Integrin a5 to Annexin A2 by Flow Drives Endothelial Activation.” Circulation research vol. 127, 8 (2020): 1074-1090) to accelerate the development of atherosclerosis. […] Two weeks later, the carotid artery of ligated side was collected, the contralateral carotid from vehicle group were served as control. The carotid was fixed and sectioned. The wall thicknesses were quantified by software.
The subject of experiment [6] is OSS-induced inflammatory signaling in ECs (HUVECs). As to the kind of experiment: Oscillatory shear stress (OSS) in HUVECs. The conditions noted are these: oscillatory flow 0.5±4 dyn/cm2 for 6 hours, 300 nM. In kind it is cell-based, human.
Protocol: For flow experiments, confluent monolayers of HUVECs were seeded on glass slides, Static condition (ST) without any treatment served as control and a parallel plate flow system was used to impose oscillatory flow (0.5±4 dyn/cm2) for 6 hours.
Experiment [7] deals with innate immunity gene expression following ALPK1 activation. Briefly: Inhibition of ALPK1 in coronary artery, aorta, and heart muscle. In kind it is in vivo, Sprague-Dawley (SD) rats. The conditions noted are these: SD rats, 40 mpk oral, ALPK1 agonist ip 2 h later, tissue 3 h after agonist; compared with vehicle group.

Where two headings read alike, the source gives them in different places.

Chain of ALPK1 (Q96QP1 whole entry): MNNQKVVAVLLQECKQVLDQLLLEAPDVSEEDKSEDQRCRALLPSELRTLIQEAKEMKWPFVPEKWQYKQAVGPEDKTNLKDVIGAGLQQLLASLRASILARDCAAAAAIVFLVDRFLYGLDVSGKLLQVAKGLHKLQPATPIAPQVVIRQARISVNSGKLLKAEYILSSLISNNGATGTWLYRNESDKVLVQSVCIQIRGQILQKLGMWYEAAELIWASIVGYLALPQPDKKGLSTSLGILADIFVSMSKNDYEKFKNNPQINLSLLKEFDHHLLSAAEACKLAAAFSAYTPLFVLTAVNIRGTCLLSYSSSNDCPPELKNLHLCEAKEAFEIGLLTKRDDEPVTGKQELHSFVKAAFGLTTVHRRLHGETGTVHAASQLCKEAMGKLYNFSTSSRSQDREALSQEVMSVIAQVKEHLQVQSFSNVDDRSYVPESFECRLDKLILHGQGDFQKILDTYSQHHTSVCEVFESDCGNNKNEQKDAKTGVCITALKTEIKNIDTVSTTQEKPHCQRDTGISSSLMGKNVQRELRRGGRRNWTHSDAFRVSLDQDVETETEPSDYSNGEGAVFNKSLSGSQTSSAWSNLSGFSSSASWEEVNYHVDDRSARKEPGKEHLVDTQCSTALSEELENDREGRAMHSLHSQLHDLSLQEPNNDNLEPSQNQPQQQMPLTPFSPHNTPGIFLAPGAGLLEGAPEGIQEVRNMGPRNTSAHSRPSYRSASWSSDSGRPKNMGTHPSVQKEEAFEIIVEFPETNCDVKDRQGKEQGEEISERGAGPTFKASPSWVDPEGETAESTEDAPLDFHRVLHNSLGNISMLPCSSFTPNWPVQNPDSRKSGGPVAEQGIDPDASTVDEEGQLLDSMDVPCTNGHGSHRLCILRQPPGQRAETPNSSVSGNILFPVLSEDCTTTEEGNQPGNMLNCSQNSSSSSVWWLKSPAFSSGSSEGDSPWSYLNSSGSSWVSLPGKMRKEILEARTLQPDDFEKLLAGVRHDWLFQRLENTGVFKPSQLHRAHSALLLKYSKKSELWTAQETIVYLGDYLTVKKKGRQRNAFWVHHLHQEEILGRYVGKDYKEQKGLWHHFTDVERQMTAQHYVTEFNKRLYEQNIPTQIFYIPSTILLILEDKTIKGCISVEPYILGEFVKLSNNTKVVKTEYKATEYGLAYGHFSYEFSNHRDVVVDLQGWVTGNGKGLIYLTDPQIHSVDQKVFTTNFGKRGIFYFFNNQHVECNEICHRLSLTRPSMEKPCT

On to `C#C[C@@](C)(c1ccc(Cl)cc1)c1csc(NC(=O)NCCO)n1` [Compound A176, (S)-1-(4-(2-(4-chlorophenyl)but-3-yn-2-yl)thiazol-2-yl)-3-(2-hydroxyethyl)urea], for which the “inhibition of IL1β induced by ALPK1 activation” value in experiment [1] (THP-1-derived macrophages) is reported as “potent inhibition”. Also, in experiment [2], the “PBMC mRNA expression for CCL-2, CCL-7, CXCL-1, CXCL-10, CXCL-11 and IL-1β” value is reported as “significant decreases”.
One may read the IC50 as the point on the concentration scale where inhibition reaches its midpoint. In the case of `COc1ccc(C(C)(C)c2csc(NC(=O)c3ccc(N4CCNCC4C)cc3)n2)cc1` (centres unmarked) [Compound B014], at ALPK1, half-maximal inhibition (IC50) was put at 0.3 µM.
`COc1ccc(C(C)(C)c2csc(NC(=O)c3ccc(N4CCNCC4)cn3)n2)cc1` [Compound B044, N-(4-(2-(4-methoxyphenyl)propan-2-yl)thiazol-2-yl)-5-(piperazin-1-yl)picolinamide]: the IC50 on ALPK1 was 0.213 µM.
For `C#C[C@@](C)(c1ccc(Cl)cc1)c1csc(NC(=O)c2c(F)cc(N3CCNCC3)cc2F)n1` [Compound C008, (S)-N-(4-(2-(4-chlorophenyl)but-3-yn-2-yl)thiazol-2-yl)-2,6-difluoro-4-(piperazin-1-yl)benzamide], in experiment [3] (HASMC), the “IL8, TIFA, ICAM-1, VCAM-1 mRNA levels induced by ALPK1 activation” value is listed as “dose dependently inhibited”. In addition, the IC50 in experiment [3] (read-out: IC50 ICAM-1 mRNA) turned out to be 0.047 µM. In experiment [3] (read-out: IC50 IL8 mRNA), the IC50 was 0.11 µM. Besides, the IC50 in experiment [3] (read-out: IC50 TIFA mRNA) turned out to be 0.115 µM. In experiment [3] (read-out: IC50 VCAM-1 mRNA), the IC50 worked out at 0.038 µM. For the same molecule, the IC50 in experiment [1] (read-out: IL-8 mRNA IC50) is 0.006 µM. The IC50 in experiment [1] (read-out: TNF-α mRNA IC50) amounted to 0.009 µM. Moreover, in experiment [1] (THP-1-derived macrophages), the “inhibition of IL1β induced by ALPK1 activation” value was “potent inhibition”; the “inhibition of IL8 and TNF-α mRNA induced by ALPK1 activation” value is “potent inhibition”. Moreover, in experiment [4], the “fibrosis area percentage of the carotid artery (Masson staining)” value is reported as “decreased”, the “liver CYP7A1 expression” value was “elevated CYP7A1 expression dose dependently”, the “total plasma cholesterol level” value was “dose dependently decreased” and the “wall thickness of the carotid artery (Masson staining)” value is on record as “decreased”. Moreover, the “PCL induced atherosclerosis (carotid artery wall thickness)” value in experiment [5] is “dose dependently inhibited”. The “PBMC mRNA expression for CCL-7, CXCL-1, CXCL-10, CXCL-11, IL-1β, TNF-α and IL-6” value in experiment [2] was “significant decreases”. The “OSS-induced inflammatory signaling in ECs (E-selectin and inflammatory cytokine mRNA)” value in experiment [6] is “reduced”. In experiment [7], the “mRNA expression of aorta IL-6, CXCL-1, CXCL-10, CCL-2” value is “significantly decreased”; the “mRNA expression of cardiac muscle TNF-α, IL-1b, IL-6, CXCL-1, CXCL-10, CXCL-11, CCL-2 and CCL-5” value was “significantly decreased”; the “mRNA expression of coronary artery TNF-α, CXCL-1, CCL-2 and CCL-7” value is reported as “significantly decreased”.

Source of the values: US20250241908A1 (SHANGHAI YAO YUAN BIOTECHNOLOGY CO., LTD., priority 2022, published 2025).
